Measured values as given in ChEMBL document CHEMBL3098038, “Verrulactone C with an unprecedented dispiro skeleton, a new inhibitor of Staphylococcus aureus enoyl-ACP reductase, from Penicillium verruculosum F375” (Bioorg Med Chem Lett, 2014).
≈ marks a conversion by molar mass, not a printed value. Calls of active or inactive are those of the source. No cut-off for these calls is given here.

Tests used:
[1] = system: Staphylococcus aureus; assay: Antibacterial activity against Staphylococcus aureus RN4220; format: functional
[2] = system: Bacillus cereus; assay: Antibacterial activity against Bacillus cereus KCTC 1661; format: functional
[3] = system: Staphylococcus aureus; assay: Inhibition of Staphylococcus aureus FabG using acetoacetyl-CoA as substrate assessed as NADPH level at 300 uM by ELISA
[4] = (§1) Inhibition of Staphylococcus aureus FabI-mediated trans-2-octenoyl N-acetylcysteamine reduction assessed as NADPH level by ELISA
[5] = system: Staphylococcus aureus; assay: as §1
[6] = system: Staphylococcus aureus; assay: Antibacterial activity against methicillin-resistant Staphylococcus aureus CCARM 3167; format: functional
[7] = system: Staphylococcus aureus; assay: Antibacterial activity against quinolone-resistant Staphylococcus aureus CCARM 3505; format: functional

Structure (SMILES)	MIC [1] [µg/mL]	MIC [2] [µg/mL]	inhibition [3]	IC50 [4] [µM]	inhibition [5]	MIC [6] [µg/mL]	MIC [7] [µg/mL]
COc1cc(O)c2c(=O)oc3cc(O)c(O)cc3c2c1	8 (≈ 29.2 µM)	8 (≈ 29.2 µM)	inactive	85.4	Dose-dependent effect	8 (≈ 29.2 µM)	8 (≈ 29.2 µM)
COc1cc(O)c2c(c1)[C@@]1(OC2=O)C(C)=CC(=O)[C@]12C(=O)c1c(O)c(O)cc3oc(=O)c4c(O)cc(OC)c2c4c13 (relative stereo)	32 (≈ 57.3 µM)	32 (≈ 57.3 µM)	inactive	16.1	Dose-dependent effect	32 (≈ 57.3 µM)	32 (≈ 57.3 µM)
Oc1cc(Cl)ccc1Oc1ccc(Cl)cc1Cl [TRICLOSAN]	0.01 (≈ 0.0345 µM)	0.01 (≈ 0.0345 µM)				0.01 (≈ 0.0345 µM)	0.01 (≈ 0.0345 µM)
COc1cc(O)c2c(=O)oc3cc(O)c(O)c(-c4c(O)c(O)cc5oc(=O)c6c(O)cc(OC)cc6c45)c3c2c1 [VERRULACTONE A]	8 (≈ 14.6 µM)	8 (≈ 14.6 µM)		0.92		8 (≈ 14.6 µM)	8 (≈ 14.6 µM)
COc1cc(O)c2c(=O)oc3c(-c4c(O)c(O)cc5oc(=O)c6c(O)cc(OC)cc6c45)c(O)c(O)cc3c2c1 [VERRULACTONE B]	8 (≈ 14.6 µM)	8 (≈ 14.6 µM)		1.41		8 (≈ 14.6 µM)	8 (≈ 14.6 µM)
